Converted amounts (≈) assume the structure as drawn. Where two headings read alike, the source gives them in different places.
Assays:
[1] = test system: Staphylococcus aureus S13E; test: MIC, standard agar-dilution assay (Table IX); type: cell-based; conditions: Staphylococcus aureus, S13E
[2] = test system: Streptococcus Group D X66; test: MIC, standard agar-dilution assay (Table IX); type: cell-based; conditions: read-out: MIC
Escherichia coli EC14 = test: MIC, standard agar-dilution assay (Table IX); type: cell-based; conditions: read-out: MIC
[3] = test system: Staphylococcus epidermidis 222; test: MIC, standard agar-dilution assay (Table IX); type: cell-based; conditions: read-out: MIC
[4] = test system: Streptococcus Group D 2041; test: MIC, standard agar-dilution assay (Table IX); type: cell-based; conditions: GROUPD2041, read-out: MIC
Staphyloccus aureus X1.1 = test: MIC, standard agar-dilution assay (Table IX); type: cell-based, Staphylococcus aureus; conditions: Staphylococcus aureus, read-out: MIC
[5] = test system: Streptococcus pneumoniae Park I; test: MIC, standard agar-dilution assay (Table IX); type: cell-based; conditions: Streptococcus pneumoniae Park I; agar-dilution; read-out: MIC
Pasteurella multocida [6] = test: Pasteurella infection in one-day-old chicks, subcutaneous administration (Table XII); type: in vivo; conditions: Administered subcutaneously, 30 mg/kg × 2, 1 and 4 hours post-challenge
Protocol: (§1) Many of the C-20 modified derivatives of this invention have also shown in vivo antibacterial activity against infections induced by gram-negative bacteria. Tables XII and XIII summarize the results of tests in which illustrative compounds were evaluated against a Pasteurella infection in one-day-old chicks. The compounds were administered parenterally or orally after challenge of the chicks with Pasteurella multocida (0.1 ml of a 10^-4 dilution of a twenty-hour tryptose broth culture of an avian P. multocida given subcutaneously). In these tests, unless indicated otherwise, all non-medicated infected chicks died within 24 hours of Pasteurella challenge. In the tests summarized in Table XII, the compounds were administered by subcutaneous injection at a dosage of 30 mg/kg, 1 and 4 hours post-challenge of the chicks with P. multocida. In the tests summarized in Table XIII the compounds were administered in medicated drinking water (at a level of 2 g/gal) available from 4 to 20 hours prior to challenge of the chicks with P. multocida and during the 3 -day test period.
^a Administered subcutaneously; 30 mg/kg × 2

[7] = test system: Streptococcus pyogenes C203; test: MIC, standard agar-dilution assay (Table IX); type: cell-based; conditions: read-out: MIC
Escherichia coli TEM = test: MIC, standard agar-dilution assay (Table IX); type: cell-based; conditions: read-out: MIC
Klebsiella X26 = test: MIC, standard agar-dilution assay (Table IX); type: cell-based; conditions: read-out: MIC
[8] = test system: Haemophilus influenzae 76; test: MIC, standard agar-dilution assay (Table IX); type: cell-based; conditions: Haemophilus influenzae 76, Ampicillin-resistant strain, read-out: MIC
[9] = test system: Staphylococcus aureus V41; test: MIC, standard agar-dilution assay (Table IX); type: cell-based; conditions: Staphylococcus aureus V41, Penicillin-resistant strain, read-out: MIC
[10] = test system: Staphylococcus epidermidis EPI1; test: MIC, standard agar-dilution assay (Table IX); type: cell-based; conditions: Staphylococcus epidermidis EPI1; agar-dilution; read-out: MIC
[11] = test system: Staphylococcus aureus X400; test: MIC, standard agar-dilution assay (Table IX); type: cell-based; conditions: Staphylococcus aureus X400, Methicillin-resistant strain, read-out: MIC
Staphylococcus aureus = test: MIC, broth-dilution microtiter test (Table X); type: cell-based; conditions: read-out: MIC
Source text: (§2) The MIC's in Table X were obtained using conventional broth-dilution microtiter tests.

Mycoplasma synoviae 40A = test: MIC, broth-dilution microtiter test (Table X); type: cell-based; conditions: Mycoplasmopsis synoviae, read-out: MIC
Source text: as §2

[12] = test system: Pasteurella multocida 17E; test: MIC, broth-dilution microtiter test (Table X); type: cell-based; conditions: Bovine isolate, read-out: MIC
Source text: as §2

Mycoplasma hyorhinis 29E = test: MIC, broth-dilution microtiter test (Table X); type: cell-based; conditions: read-out: MIC
Source text: as §2

[13] = test system: Pasteurella multocida 60A; test: MIC, broth-dilution microtiter test (Table X); type: cell-based; conditions: Avian isolate, read-out: MIC
Source text: as §2

Streptococcus sp. 19F = test: MIC, broth-dilution microtiter test (Table X); type: cell-based; conditions: read-out: MIC
Source text: as §2

[14] = test system: Pasteurella hemolytica 22C; test: MIC, broth-dilution microtiter test (Table X); type: cell-based; conditions: read-out: MIC
Source text: as §2

[15] = test system: Mycoplasma hyopneumoniae S5972; test: MIC, broth-dilution microtiter test (Table X); type: cell-based; conditions: Mesomycoplasma hyopneumoniae, read-out: MIC
Source text: as §2

[16] = test system: Mycoplasma gallisepticum 29C; test: MIC, broth-dilution microtiter test (Table X); type: cell-based; conditions: Mycoplasmoides gallisepticum, read-out: MIC
Source text: as §2

Escherichia coli N10 = test: MIC, standard agar-dilution assay (Table IX); type: cell-based; conditions: read-out: MIC
[17] = test system: Haemophilus influenzae C.L.; test: MIC, standard agar-dilution assay (Table IX); type: cell-based; conditions: Ampicillin-sensitive strain, read-out: MIC
[18] = test system: Streptococcus pyogenes C203; test: ED50 in mice experimentally infected with S. pyogenes C203 (Table XI); type: in vivo; conditions: Streptococcus pyogenes, doses given 1 and 4 hours postinfection, read-out: ED50
Protocol: The C-20 modified derivatives of this invention have shown in vivo antimicrobial activity against experimentally-induced infections in laboratory animals. When two doses of test compound were administered to mice experimentally infected with S. pyogenes C203, the activity observed was measured as an ED50 value [effective dose in mg/kg to protect 50% of the test animals: see Warren Wick, et al., J. Bacteriol. 81, 233-235 (1961)].
^a mg/kg × 2; doses given 1 and 4 hours postinfection

Pasteurella multocida [19] = test: Pasteurella infection in one-day-old chicks, medicated drinking water (Table XIII); type: in vivo; conditions: Administered in the available drinking water at 2 g/gal
Protocol: as §1
^a Administered in the available drinking water at a concentration of […]

| Structure (SMILES) | MIC [1] | MIC [2] | MIC (Escherichia coli EC14) | MIC [3] | MIC [4] | MIC (Staphyloccus aureus X1.1) | MIC [5] | Number of Deaths/Number Treated (Pasteurella multocida [6]) | MIC [7] | MIC (Escherichia coli TEM) | MIC (Klebsiella X26) | MIC [8] | MIC [9] | MIC [10] | MIC [11] | MIC (Staphylococcus aureus) | MIC (Mycoplasma synoviae 40A) | MIC [12] | MIC (Mycoplasma hyorhinis 29E) | Number of Deaths/Number Treated (Pasteurella multocida [19]) | further results |
| --- | --- | --- | --- | --- | --- | --- | --- | --- | --- | --- | --- | --- | --- | --- | --- | --- | --- | --- | --- | --- | --- |
| CCC1OC(=O)CC(O)C(C)C(OC2OC(C)C(O)C(N(C)C)C2O)C(CCN2CC=CCC2)CC(C)C(=O)C=CC(C)=CC1COC1OC(C)C(O)C(OC)C1OC (centres unmarked) [Compound D22, 20-DH-DO-20-(1,2,3,6-Tetrahydropyridin-1-yl)desmycosin] | 0.5 µg/mL (≈ 0.596 µM) | 8 µg/mL (≈ 9.53 µM) | > 128 µg/mL | 0.25 µg/mL (≈ 0.298 µM) | 8 µg/mL (≈ 9.53 µM) | 1 µg/mL (≈ 1.19 µM) | 1 µg/mL (≈ 1.19 µM) | 0/10 | 0.25 µg/mL (≈ 0.298 µM) | 64 µg/mL (≈ 76.3 µM) | 64 µg/mL (≈ 76.3 µM) | 8 µg/mL (≈ 9.53 µM) | 0.5 µg/mL (≈ 0.596 µM) | 0.5 µg/mL (≈ 0.596 µM) | 1 µg/mL (≈ 1.19 µM) | 1.56 µg/mL (≈ 1.86 µM) | 0.78 µg/mL (≈ 0.93 µM) | 12.5 µg/mL (≈ 14.9 µM) | 25 µg/mL (≈ 29.8 µM) | 5/10 | MIC [13]: 12.5 µg/mL (≈ 14.9 µM); MIC (Streptococcus sp. 19F): 3.12 µg/mL (≈ 3.72 µM); MIC [14]: 3.12 µg/mL (≈ 3.72 µM); MIC [15]: 1.56 µg/mL (≈ 1.86 µM); MIC [16]: 0.78 µg/mL (≈ 0.93 µM); MIC (Escherichia coli N10): > 128 µg/mL; MIC [17]: 16 µg/mL (≈ 19.1 µM); ED50 ([18]; C203, Oral): 40 mg/kg; ED50 ([18]; C203, sc, Subcutaneous): 0.8 mg/kg |
| CCC1OC(=O)CC(O)C(C)C(OC2OC(C)C(O)C(N(C)C)C2O)C(CCN2CCC3(CC2)OCCO3)CC(C)C(=O)C=CC(C)=CC1COC1OC(C)C(O)C(OC)C1OC (centres unmarked) [Compound D28, 20-DH-DO-20-[4-(ethylenedioxy)piperidin-1-yl]desmycosin] | 2 µg/mL (≈ 2.22 µM) | 8 µg/mL (≈ 8.9 µM) | > 128 µg/mL | 1 µg/mL (≈ 1.11 µM) | 8 µg/mL (≈ 8.9 µM) | 2 µg/mL (≈ 2.22 µM) | 2 µg/mL (≈ 2.22 µM) | 0/10 | 0.5 µg/mL (≈ 0.556 µM) | 64 µg/mL (≈ 71.2 µM) | 64 µg/mL (≈ 71.2 µM) | 32 µg/mL (≈ 35.6 µM) | 2 µg/mL (≈ 2.22 µM) | 2 µg/mL (≈ 2.22 µM) | 4 µg/mL (≈ 4.45 µM) | 3.12 µg/mL (≈ 3.47 µM) | 0.195 µg/mL (≈ 0.217 µM) | 6.25 µg/mL (≈ 6.95 µM) | 25 µg/mL (≈ 27.8 µM) | 7/10 | MIC [13]: 25 µg/mL (≈ 27.8 µM); MIC (Streptococcus sp. 19F): 3.12 µg/mL (≈ 3.47 µM); MIC [14]: 25 µg/mL (≈ 27.8 µM); MIC [15]: 1.56 µg/mL (≈ 1.74 µM); MIC [16]: 0.097 µg/mL (≈ 0.108 µM); MIC (Escherichia coli N10): > 128 µg/mL; MIC [17]: 32 µg/mL (≈ 35.6 µM); ED50 ([18]; C203, Oral): 77 mg/kg; ED50 ([18]; C203, sc, Subcutaneous): 0.75 mg/kg |
| CCC1OC(=O)CC(O)C(C)C(OC2OC(C)C(O)C(N(C)C)C2O)C(CCN2CC3CCC(C)(C2)C3(C)C)CC(C)C(=O)C=CC(C)=CC1COC1OC(C)C(O)C(OC)C1OC (centres unmarked) [Compound D47] | – | – | – | – | – | – | – | 0/10 | – | – | – | – | – | – | – | – | – | – | – | 6/10 | – |
| CCC1OC(=O)CC(O)C(C)C(OC2OC(C)C(O)C(N(C)C)C2O)C(CCN2CC3CCCCC3C2)CC(C)C(=O)C=CC(C)=CC1COC1OC(C)C(O)C(OC)C1OC (centres unmarked) [Compound D45] | – | – | – | – | – | – | – | 0/10 | – | – | – | – | – | – | – | – | – | – | – | 1/10 | – |

— patent US4820695A, “C-20-dihydro-deoxy-(cyclic amino)-derivatives of macrolide antibiotics” (priority 1987, dated 1989)
